This note sets out measurements from patent US20230077362A1 (CORTEVA AGRISCIENCE LLC, priority 2019, published 2023).

Experiment [1] deals with Beet Armyworm (Spodoptera exigua) ("BAW"), second instar larvae. Nature of the experiment: Bioassay on beet armyworm (BAW), 128-well diet tray assay. The experiment is classed as in vivo. Particulars: Spodoptera exigua, read-out: BAW (Biological Results, rating). On the procedure:
(§1) Certain molecules disclosed in this document were tested against BAW and CL using procedures described in the following examples. In the reporting of the results, the “BAW & CL Rating Table” was used (See Table Section).
(§2) Trays were covered with a clear self-adhesive cover and held at 25° C., 14:10 light-dark cycle for five to seven days. Percent mortality was recorded for the larvae in each well; activity in the eight wells was then averaged. The results are indicated in the table entitled “Table ABC: Biological Results” (See Table Section).

In experiment [2] the test system is Cabbage Looper (Trichoplusia ni) ("CL"), second instar larvae. In words: Bioassay on cabbage looper (CL), 128-well diet tray assay. The format is in vivo. The note with it: Trichoplusia ni, read-out: CL (Biological Results, rating). Here is the method: as §1, §2

As to `COc1ccc(C(C)C)c(N2C(=O)CS/C2=N\C(=O)Nc2ccc(-c3ncn(-c4ccc(C(F)(F)F)cc4)n3)cc2F)c1` [Compound J11, (Z)-1-(2-Fluoro-4-(1-(4-(trifluoromethyl)phenyl)-1H-1,2,4-triazol-3-yl)phenyl)-3-(3-(2-isopropyl-5-methoxyphenyl)-4-oxothiazolidin-2-ylidene)urea], the pest or weed control at 50 µg/cm2 in experiment [1] and in experiment [2] was 50 to 100% each time.

With `CCCc1ccc(C)cc1N1C(=O)CS/C1=N\C(=O)Nc1ccc(-c2ncn(-c3ccc(OC(F)(F)C(F)(F)F)cc3)n2)c(C)c1` [Compound J12, (Z)-1-(3-(5-Methyl-2-propylphenyl)-4-oxothiazolidin-2-ylidene)-3-(3-methyl-4-(1-(4-(perfluoroethoxy)phenyl)-1H-1,2,4-triazol-3-yl)phenyl)urea], the pest or weed control at 50 µg/cm2 in experiment [1] and in experiment [2] was 50 to 100% throughout.

For the molecule `COc1cc(-c2ncn(-c3ccc(C(F)(F)F)cc3)n2)ccc1NC(=O)/N=C1\SCC(=O)N1c1cc(C)ccc1C(C)C` [Compound J13, (Z)-1-(3-(2-Isopropyl-5-methylphenyl)-4-oxothiazolidin-2-ylidene)-3-(2-methoxy-4-(1-(4-(trifluoromethyl)phenyl)-1H-1,2,4-triazol-3-yl)phenyl)urea], the pest or weed control at 50 µg/cm2 in experiment [1] and in experiment [2] was 50 to 100% each time.

Consider `CCc1ccc(C)cc1N1C(=O)CS/C1=N\C(=O)Nc1ccc(-c2ncn(-c3ccc(OC(F)(F)C(F)(F)F)cc3)n2)c(C)c1` [Compound J14, (Z)-1-(3-(2-Ethyl-5-methylphenyl)-4-oxothiazolidin-2-ylidene)-3-(3-methyl-4-(1-(4-(perfluoroethoxy)phenyl)-1H-1,2,4-triazol-3-yl)phenyl)urea], for which the pest or weed control at 50 µg/cm2 in experiment [1] and in experiment [2] was 50 to 100% in each case.

Take `CCCc1ccc(C)cc1N1C(=O)CS/C1=N\C(=O)Nc1ccc(-c2ncn(-c3ccc(C(F)(F)F)cc3)n2)cc1C` [Compound J15, (Z)-1-(3-(5-Methyl-2-propylphenyl)-4-oxothiazolidin-2-ylidene)-3-(2-methyl-4-(1-(4-(trifluoromethyl)phenyl)-1H-1,2,4-triazol-3-yl)phenyl)urea]: the pest or weed control at 50 µg/cm2 in experiment [1] and in experiment [2] was 50 to 100% throughout.

For the molecule `COc1ccc(C(C)C)c(N2C(=O)CS/C2=N\C(=O)Nc2ccc(-c3ncn(-c4ccc(OC(F)(F)F)cc4)n3)c(C)c2)c1` [Compound J22, (Z)-1-(3-(2-Isopropyl-5-methoxyphenyl)-4-oxothiazolidin-2-ylidene)-3-(3-methyl-4-(1-(4-(trifluoromethoxy)phenyl)-1H-1,2,4-triazol-3-yl)phenyl)urea], the pest or weed control at 50 µg/cm2 in experiment [1] and in experiment [2] was 50 to 100% in each case.

Consider `Cc1ccc(C(C)C)c(N2C(=O)CS/C2=N\C(=O)Nc2ccc(-c3ncn(-c4ccc(OC(F)(F)F)cc4)n3)c(C)c2)c1` [Compound J23, (Z)-1-(3-(2-Isopropyl-5-methylphenyl)-4-oxothiazolidin-2-ylidene)-3-(3-methyl-4-(1-(4-(trifluoromethoxy)phenyl)-1H-1,2,4-triazol-3-yl)phenyl)urea], for which the pest or weed control at 50 µg/cm2 in experiment [1] and in experiment [2] was 50 to 100% in each case.

As to `Cc1ccc(C(C)C)c(N2C(=O)CS/C2=N\C(=O)Nc2ccc(-c3ncn(-c4ccc(OC(F)(F)C(F)(F)F)cc4)n3)cc2C)c1` [Compound J24, (Z)-1-(3-(2-Isopropyl-5-methylphenyl)-4-oxothiazolidin-2-ylidene)-3-(2-methyl-4-(1-(4-(perfluoroethoxy)phenyl)-1H-1,2,4-triazol-3-yl)phenyl)urea], the pest or weed control at 50 µg/cm2 in experiment [1] and in experiment [2] was 50 to 100% in each case.

In the case of `COc1ccc(C(C)C)c(N2C(=O)CS/C2=N\C(=O)Nc2ccc(-c3ncn(-c4ccc(OC(F)(F)C(F)(F)F)cc4)n3)cc2C)c1` [Compound J25, (Z)-1-(3-(2-Isopropyl-5-methoxyphenyl)-4-oxothiazolidin-2-ylidene)-3-(2-methyl-4-(1-(4-(perfluoroethoxy)phenyl)-1H-1,2,4-triazol-3-yl)phenyl)urea], the pest or weed control at 50 µg/cm2 in experiment [1] and in experiment [2] was 50 to 100% throughout.

As to `Cc1ccc(C(C)C)c(N2C(=O)CS/C2=N\C(=O)Nc2ccc(-c3ncn(-c4ccc(OC(F)(F)C(F)(F)F)cc4)n3)cc2F)c1` [Compound J26, (Z)-1-(2-Fluoro-4-(1-(4-(perfluoroethoxy)phenyl)-1H-1,2,4-triazol-3-yl)phenyl)-3-(3-(2-isopropyl-5-methylphenyl)-4-oxothiazolidin-2-ylidene)urea], the pest or weed control at 50 µg/cm2 in experiment [1] and in experiment [2] was 50 to 100% each time.

As for `COc1ccc(C(C)C)c(N2C(=O)CS/C2=N\C(=O)Nc2ccc(-c3ncn(-c4ccc(OC(F)(F)C(F)(F)F)cc4)n3)cc2F)c1` [Compound J27, (Z)-1-(2-Fluoro-4-(1-(4-(perfluoroethoxy)phenyl)-1H-1,2,4-triazol-3-yl)phenyl)-3-(3-(2-isopropyl-5-methoxyphenyl)-4-oxothiazolidin-2-ylidene)urea], the pest or weed control at 50 µg/cm2 in experiment [1] and in experiment [2] was 50 to 100% throughout.

`COc1cc(-c2ncn(-c3ccc(OC(F)(F)C(F)(F)F)cc3)n2)ccc1NC(=O)/N=C1\SCC(=O)N1c1cc(C)ccc1C(C)C` [Compound J28, (Z)-1-(3-(2-Isopropyl-5-methylphenyl)-4-oxothiazolidin-2-ylidene)-3-(2-methoxy-4-(1-(4-(perfluoroethoxy)phenyl)-1H-1,2,4-triazol-3-yl)phenyl)urea]: the pest or weed control at 50 µg/cm2 in experiment [1] and in experiment [2] was 50 to 100% throughout.

With `COc1ccc(C(C)C)c(N2C(=O)CS/C2=N\C(=O)Nc2ccc(-c3ncn(-c4ccc(OC(F)(F)C(F)(F)F)cc4)n3)cc2OC)c1` [Compound J29, (Z)-1-(3-(2-Isopropyl-5-methoxyphenyl)-4-oxothiazolidin-2-ylidene)-3-(2-methoxy-4-(1-(4-(perfluoroethoxy)phenyl)-1H-1,2,4-triazol-3-yl)phenyl)urea], the pest or weed control at 50 µg/cm2 in experiment [1] and in experiment [2] was 50 to 100% throughout.

In the case of `Cc1ccc(C(F)(F)F)c(N2C(=O)CS/C2=N\C(=O)Nc2ccc(-c3ncn(-c4ccc(OC(F)(F)F)cc4)n3)cc2F)c1` [Compound J30, (Z)-1-(2-Fluoro-4-(1-(4-(trifluoromethoxy)phenyl)-1H-1,2,4-triazol-3-yl)phenyl)-3-(3-(5-methyl-2-(trifluoromethyl)phenyl)-4-oxothiazolidin-2-ylidene)urea], the pest or weed control at 50 µg/cm2 in experiment [1] and in experiment [2] was 50 to 100% in each case.

For `Cc1ccc(OCC(F)(F)F)c(N2C(=O)CS/C2=N\C(=O)Nc2ccc(-c3ncn(-c4ccc(OC(F)(F)F)cc4)n3)cc2F)c1` [Compound J31, (Z)-1-(2-Fluoro-4-(1-(4-(trifluoromethoxy)phenyl)-1H-1,2,4-triazol-3-yl)phenyl)-3-(3-(5-methyl-2-(2,2,2-trifluoroethoxy)phenyl)-4-oxothiazolidin-2-ylidene)urea], the pest or weed control at 50 µg/cm2 in experiment [1] and in experiment [2] was 50 to 100% in each case.

In the case of `Cc1ccc(C(F)(F)F)c(N2C(=O)C(Cl)S/C2=N\C(=O)Nc2ccc(-c3ncn(-c4ccc(OC(F)(F)F)cc4)n3)cc2F)c1` (stereo not shown) [Compound J34, (Z)-1-(5-Chloro-3-(5-methyl-2-(trifluoromethyl)phenyl)-4-oxothiazolidin-2-ylidene)-3-(2-fluoro-4-(1-(4-(trifluoromethoxy)phenyl)-1H-1,2,4-triazol-3-yl)phenyl)urea], the pest or weed control at 50 µg/cm2 in experiment [1] and in experiment [2] was 50 to 100% throughout.

For `Cc1ccc(OCCC(F)(F)F)c(N2C(=O)C(Cl)S/C2=N\C(=O)Nc2ccc(-c3ncn(-c4ccc(OC(F)(F)F)cc4)n3)cc2F)c1` (stereo not shown) [Compound J36, (Z)-1-(5-Chloro-3-(5-methyl-2-(3,3,3-trifluoropropoxy)phenyl)-4-oxothiazolidin-2-ylidene)-3-(2-fluoro-4-(1-(4-(trifluoromethoxy)phenyl)-1H-1,2,4-triazol-3-yl)phenyl)urea], the pest or weed control at 50 µg/cm2 in experiment [1] and in experiment [2] was 50 to 100% in each case.

As for `COc1ccc(C(C)C)c(N2C(=O)CS/C2=N\C(=O)Nc2ccc(-c3ncn(-c4ccc(OC(F)(F)F)cc4)n3)cc2Cl)c1` [Compound J37, (Z)-1-(2-Chloro-4-(1-(4-(trifluoromethoxy)phenyl)-1H-1,2,4-triazol-3-yl)phenyl)-3-(3-(2-isopropyl-5-methoxyphenyl)-4-oxothiazolidin-2-ylidene)urea], the pest or weed control at 50 µg/cm2 in experiment [1] and in experiment [2] was 50 to 100% throughout.

For the molecule `Cc1ccc(C(C)C)c(N2C(=O)CS/C2=N\C(=O)Nc2ccc(-c3ncn(-c4ccc(OC(F)(F)F)cc4)n3)cc2Cl)c1` [Compound J38, (Z)-1-(2-Chloro-4-(1-(4-(trifluoromethoxy)phenyl)-1H-1,2,4-triazol-3-yl)phenyl)-3-(3-(2-isopropyl-5-methylphenyl)-4-oxothiazolidin-2-ylidene)urea], the pest or weed control at 50 µg/cm2 in experiment [1] and in experiment [2] was 50 to 100% each time.

Take `Cc1ccc(C(F)(F)F)c(N2C(=O)CS/C2=N\C(=O)Nc2ccc(-c3ncn(-c4ccc(OC(F)(F)F)cc4)n3)cc2Cl)c1` [Compound J39, (Z)-1-(2-Chloro-4-(1-(4-(trifluoromethoxy)phenyl)-1H-1,2,4-triazol-3-yl)phenyl)-3-(3-(5-methyl-2-(trifluoromethyl)phenyl)-4-oxothiazolidin-2-ylidene)urea]: the pest or weed control at 50 µg/cm2 in experiment [1] and in experiment [2] was 50 to 100% each time.
